Test results published in patent US20260256909A1, “COMBINATION OF A BTN3A ACTIVATING ANTIBODY, A BCL2 INHIBITOR AND HYPOMETHYLATING AGENT FOR USE IN TREATING CANCER” (Imcheck Therapeutics, priority 2022, published 2026).

Columns and labels:
KG1a AML cells = experiment: Killing of KG1a AML cells in co-culture with HD-PBMC (flow cytometry); assay type: cell-based, human; settings: for effect on Vγ9Vδ2 T cell killing activity compared to hIgG1S conditions: upon activation with ICT01, single agent, KG1a co-culture with HD-PBMC
Procedure: A) Sensitivity of KG1a cell line to Venetoclax, 5-Azacytidine or the combination. […] N=2 experiments. B) Mean±SEM relative number of Live KG1a AML cells monitored by flow cytometry after 3 days of co-culture with HD-PBMC (E:T ratio 25:1) treated with ICT01 (black) or its isotype control (hIgG1S, light grey) at 0.1 or 1 μg/mL. N=6, each dot represents one healthy donor. C) Schematic representation of treatment schedule for killing of KG1a AML cells by HD-PBMC. D) Relative number of Live KG1a AML cells (Mean±SEM) (left) and Frequency of Live KG1a AML cell relative to no Venetoclax or 5-Azacytidine treatment (Mean±SEM) (right) after 3 days of co-culture with HD-PBMC in presence of ICT01 (black) or its isotype control (hIgG1S, light grey) and treatment with Venetoclax, 5-Azacytidine or the combination. N=6, each dot represents one healthy donor, * p<0.05, Wilcoxon test.
KG1a cells were co-cultured with HD-PBMC at ratio 5:1 in presence of m20.1 or isotype control (0.1 μg/mL). After 6 hrs, indicated concentrations of Venetoclax, 5-Azacytidine or the combination were added to the culture. Relative number of live KG1a was monitored after 48 hrs by flow cytometry. […] N=6, each dot represents one healthy donor, * p<0.05, ** p<0.01, *** p<0.001, **** p<0.0001, 2 way ANOVA.
KG1a or MOLM14 AML cell lines were co-cultured with HD-PBMC at ratio 5:1 in presence of ICT01 or isotype control (0.1 μg/mL). After 6 hrs, indicated concentrations of ABT-737, Navitoclax or MIK665 were added to the culture. A) Relative numbers of live KG1a cells (Mean±SEM) after 2 days of co-culture with HD-PBMC in presence of ICT01 (black) or its isotype control hIgG1S (light grey) and treatment with indicated concentration of ABT-737. B) Relative numbers of live KG1a cells (Mean±SEM) after 2 days of co-culture with HD-PBMC in presence of ICT01 (black) or its isotype control hIgG1S (light grey) and treatment with indicated concentration of Navitoclax. C) Relative numbers of live MOLM14 cells (Mean±SEM) after 2 days of co-culture with HD-PBMC in presence of ICT01 (black) or its isotype control hIgG1S (light grey) and treatment with indicated concentration of MIK665. N=6 HD, each dot represents one healthy donor, * p<0.05, 2 way ANOVA.
The effect of Venetoclax and 5-Azacytidine on anti-BTN3A antibodies-induced killing of AML cell lines by Vγ9Vδ2 T cells was assessed by measuring the relative number of surviving target cells in a HD-PBMC-AML cell co-culture using flow cytometry.
Then, KG1a AML cells were stained with CellTrace CFSE Proliferation dye (ThermoFisher) to allow for specific detection by flow cytometry, counted, put into a co-culture with thawed HD-PBMC and treated with the anti-BTN3A mAbs ICT01 or m20.1 or their respective isotype controls (hIgG1S or mIgG1) in PBMC medium (RPMI 1640 Medium supplemented with 10% Fetal Bovine Serum (FBS) and 1 mM Sodium Pyruvate). On day one of culture, increasing concentrations of Venetoclax (0-0.4 μM), 5-Azacytidine (0-0.4 μM) or the combination were added. Cells were harvested on day 3 of co-culture, centrifuged at 1800 rpm for 5 minutes and then incubated 10 minutes at room temperature (RT) with 25 μl of FcR blocking reagent (Miltenyi Biotec) before adding 25 μL of the following antibody mix prepared in PBS+2% FBS+2 mM EDTA (FACS buffer): anti-CD56-BV421, CD19-BV421, CD14-BV785, Tyb-PE and CD3-AF700 antibodies for the identification of immune subsets, and a viability marker (LIVE/DEAD™ Fixable Dead Cell Stain) was added to distinguish live and dead cells. Cells were incubated 20 minutes at room temperature, washed once in FACS buffer and once in AnnexinV staining buffer. An AnnexinV-APC probe mixed with CountBright Absolute Counting Beads (Invitrogen) was added to determine apoptosis and relative cell numbers, followed by 15 minutes incubation at RT before flow cytometry analysis. […]

Vγ9Vδ2 T cells = experiment: Expression of activating and inhibitory receptors by Vγ9Vδ2 T cells in HD-PBMC; assay type: cell-based, human; settings: for effect on ICT01-induced expression of activating and inhibitory receptors on Vγ9Vδ2 T cells: day 5, Venetoclax 0-0.1 μM, 5-Azacytidine 0-0.4 μM
Procedure: Vγ9Vδ2 T cell functions are tightly regulated by activating (NKG2D and DNAM-1) and inhibitory receptors (PD-1, NKG2A, BTLA, TIM3). To assess the impact of Venetoclax and 5-Azacytidine treatment on the expression of these receptors by Vγ9Vδ2 T cells, frozen human PBMC from healthy donors (HD, n=6) were thawed and treated with ICT01 or its isotype control (hIgG1S) used at 1 μg/mL in the presence or absence of increasing concentrations of Venetoclax (0-0.1 μM), 5-Azacytidine (0-0.4 μM) or the combination in PBMC medium (RPMI 1640 Medium supplemented with 10% FBS, 1% Penicillin/Streptomycin, 1 mM Sodium Pyruvate and 50 IU/mL IL2). Cells were harvested on day 5, centrifuged at 1800 rpm for 5 minutes and then incubated 10 minutes at RT with 25 μl of FcR blocking reagent (Miltenyi Biotec) before adding 25 μL of the following antibody mix prepared in PBS+2% FBS+2 mM EDTA (FACS buffer): anti-CD4-BUV395, Vδ2-PE, CD3-PE-CF594 and CD8-A700 antibodies for the identification of immune subsets, anti-BTLA-BV421, PD1-BV650, DNAM-1-BV785, TIM3-BB515, NKG2A-PE-Vio770 and NKG2D-APC antibodies for the detection of inhibitory and activating receptors, and a viability marker (LIVE/DEAD™ Fixable Dead Cell Stain) was added to distinguish live from dead cells. Cells were incubated 20 minutes at 4° C. and washed 2 times in FACS buffer before flow cytometry analysis.

| Compound | effect on KG1a survival (KG1a AML cells; hIgG1S conditions, co-culture with HD-PBMC, day 3) | effect on KG1a survival (KG1a AML cells; mIgG1 conditions, HD-PBMC ratio 5:1, 48 hrs) | effect on Vγ9Vδ2 T cell killing activity compared to hIgG1S conditions (KG1a AML cells) | effect on ICT01-induced expression of activating and inhibitory receptors on Vγ9Vδ2 T cells (Vγ9Vδ2 T cells) | reduction of KG1a relative numbers (KG1a AML cells; hIgG1S-treatment conditions, highest concentration, co-culture with HD-PBMC, day 3) | reduction of KG1a relative numbers (KG1a AML cells; mIgG1 conditions, Venetoclax 0.1 μM alone or combined with 0.4 μM 5-Azacytidine, HD-PBMC ratio 5:1, 48 hrs) [%] | average reduction of live KG1a cell numbers compared to hIgG1S conditions (KG1a AML cells; 3 days co-culture with HD-PBMC (E:T ratio 25:1), large variability within PBMC donors) | KG1a cell death as compared to control condition (KG1a AML cells; ICT01 0.1 μg/mL, HD-PBMC ratio 5:1, 2 days (FIG. 8a)) | expression of activating (NKG2D, DNAM-1) and inhibitory receptors (PD-1, NKG2A, BTLA, TIM3) on Vγ9Vδ2 T cells (Vγ9Vδ2 T cells; day 5, ICT01 1 μg/mL, 50 IU/mL IL2) |
| --- | --- | --- | --- | --- | --- | --- | --- | --- | --- |
| Nc1ncn([C@@H]2O[C@H](CO)[C@@H](O)[C@H]2O)c(=O)n1 [5-Azacytidine, 4-amino-1-[(2R,3R,4S,5R)3,4-dihydroxy-5-(hydroxymethyl)oxolan-2-yl]-1,3,5-triazin-2-one] | no effect | no effect | slight increasing effects | unaffected | – | – | – | – | – |
| CC1(C)CCC(CN2CCN(c3ccc(C(=O)NS(=O)(=O)c4ccc(NCC5CCOCC5)c([N+](=O)[O-])c4)c(Oc4cnc5[nH]ccc5c4)c3)CC2)=C(c2ccc(Cl)cc2)C1 [Venetoclax, 4-[4-[[2-(4-chlorophenyl)-4,4-dimethylcyclohexen-1-yl]methyl]piperazin-1-yl]-N-[3-nitro-4-(oxan-4-ylmethylamino)phenyl]sulfonyl-2-(1H-pyrrolo[2,3-b]pyridin-5-yloxy)benzamide] | – | – | slight increasing effects | unaffected | ~ 28% | 41 | – | – | – |
| ICT01: humanized BTN3A activating antibody of mAb 7.2, heavy chain SEQ ID NO: 4, light chain SEQ ID NO: 6, silent IgG1 L247F/L248E/P350S | – | – | – | – | – | – | ~ 20% | ~ 21% | increased expression |
